From patent US11090313B2, “Methods for inhibiting muscle atrophy” (UNIVERSITY OF IOWA RESEARCH FOUNDATION, priority 2010, dated 2021)
Entries after “also recorded” stand apart in the source; their conditions may differ.

Legend:
Assay type in all cases: in vivo, mouse
C57BL/6 mice [1] = assay: Fasting-induced muscle atrophy in mice (i.p. dosing, 24 h fast)
Procedure: The mice were then fasted, and after 12 hours of fasting, the mice received a second dose of the compound or vehicle. After 24 hours of fasting, the blood glucose was measured and muscles were harvested. The data shown in FIGS. 6C-6H are means±SEM from ≤16 mice per condition. […] The effects of metformin and ursolic acid on fasting-induced muscle atrophy were also examined, i.e. the effect of 24 h fast (relative to ad lib feeding) on wet weight of lower hindlimb skeletal muscle (bilateral tibialis anterior (“TA” muscle), gastrocnemius, and soleus; see FIGS. 6E-6G). […] In FIGS. 6E-6H, each data point represents one mouse and the horizontal bars denote the means. In FIGS. 6C-6H, P-values were determined using unpaired t-tests.
Mice were then fasted, and after 12 hours of fasting, mice received a second dose of ursolic acid, oleanolic acid, or vehicle. After 24 hours of fasting, lower hindlimb skeletal muscles and liver were harvested and weighed.
To test this, food was withdrawn from mice, and then vehicle, ursolic acid (200 mg/kg) or tomatidine (50 mg/kg) were administered by i.p. injection. Twelve hours later, mice received another i.p. injection of vehicle or the same dose of ursolic acid or tomatidine. Twelve hours later, skeletal muscles were harvested and weighed. […] We next used the same protocol to compare the effects of vehicle (corn oil) and tomatidine (5, 15 and 50 mg/kg).

C57BL/6 mice [2] = assay: Denervation-induced skeletal muscle atrophy model
C57BL/6 mice [3] = assay: High fat diet model of obesity and metabolic syndrome with ursolic acid; settings: high fat diet containing 0.27% ursolic acid
Procedure: To test this, C57BL/6 mice were given ad libitum access to a high fat diet (HFD; Teklad TD.93075; 55% calories from fat) lacking or containing 0.27% ursolic acid. After 7 weeks, mice from each group were studied for three days in comprehensive lab animal monitoring systems (“CLAMS”; Columbus Instruments). In the CLAMS, mice were maintained on the same diet they had been eating since the beginning of the experiment. Following CLAMS, tissues were harvested for analysis.
The study was carried out as follows: C57BL/6 mice were given ad libitum access to a high fat diet (“HFD”; Teklad TD.93075; 55% calories from fat) lacking or containing 0.27% ursolic acid. After 5 weeks, mice were fasted for 16 h before blood glucose was measured via the tail vein (FIG. 15A). Normal fasting blood glucose: ≤100 mg/dl. (B-I) After 7 weeks, liver and plasma were harvested for analysis (FIGS. 15B-15H).

mice [4] = assay: Immobilization-induced skeletal muscle atrophy model (stapled tibialis anterior); settings: i.p. twice daily
Procedure: To test this, a mouse model of immobilization-induced skeletal muscle atrophy was used: mice were administered vehicle (corn oil) or varying doses of ursolic acid (positive control) or betulinic acid via intraperitoneal injection twice a day for two days. One tibialis anterior (TA) muscle was immobilized with a surgical staple, leaving the contralateral mobile TA as an intra-subject control. The vehicle or the same dose of ursolic acid or betulinic acid was continuously administered via i.p. injection twice daily for six days before comparing weights of the immobile and mobile TAs.
To test this, mice were administered vehicle (corn oil), ursolic acid (200 mg/kg), naringenin (200 mg/kg), or the combination of ursolic acid and naringenin (each at 200 mg/kg) via i.p injection twice a day for two days. One tibialis anterior (TA) muscle was immobilized with a surgical staple, leaving the contralateral mobile TA as an intrasubject control. Vehicle or the same doses of ursolic acid and/or naringenin was continuously administered via i.p. injection twice daily for six days before comparing weights of the immobile and mobile TAs.
To test this, mice were administered vehicle (corn oil) or tomatidine (50, 100 or 200 mg/kg) via i.p injection twice a day for two days. One tibialis anterior (TA) muscle was immobilized with a surgical staple, leaving the contralateral mobile TA as an intrasubject control. Vehicle or the same doses of tomatidine was administered via i.p. injection twice daily for six days before comparing weights of the immobile and mobile TAs. […] The same protocol was used to compare the effects of vehicle (corn oil) and tomatidine (5, 15 or 50 mg/kg) on immobilization-induced muscle atrophy.

mice [5] = assay: High fat diet with ursolic acid and/or naringenin; settings: 5 weeks
Procedure: To determine this, weight-matched mice were provided ad libitum access to standard (Harlan Teklad formula 7013), high fat diet (HFD; Harlan Teklad formula TD93075), or HFD containing varying concentrations of ursolic acid (0.15%) and/or naringenin (0.5% or 1.5%). After the mice consumed these diets for 5 weeks, fasting blood glucose, total body weight, fat mass, liver weight, grip strength, and skeletal muscle weight was measured.

[6] = ursolic acid 200 mg/kg i.p. twice, 24 h fast, qPCR, normalized to vehicle
[7] = HFD with ursolic acid 0.15% or naringenin 0.5% or 1.5%

## C[C@H]1[C@H](C)CC[C@]2(C(=O)O)CC[C@]3(C)C(=CC[C@@H]4[C@@]5(C)CC[C@H](O)C(C)(C)[C@@H]5CC[C@]43C)[C@H]12 [ursolic acid]
C57BL/6 mice [1]; i.p. at 0 and 12 h of 24 h fast, vs vehicle, mg/kg: ursolic acid 200, oleanolic acid 200, metformin 250, tomatidine 50, allantoin 2, tacrine 4, ungerine 2, hippeastrine 2, conessine 2
  skeletal muscle weight in fasted mice (fasting-induced muscle atrophy): increased skeletal muscle weight; also recorded: increased muscle weight in fasted mice
C57BL/6 mice [1]; mice, i.p. at 0 and 12 h of 24 h fast, mg/kg: metformin 250, ursolic acid 200, hippeastrine 2, conessine 2
  fasting blood glucose: significantly reduced fasting blood glucose
C57BL/6 mice [1]; ursolic acid 200 mg/kg i.p. twice, 24 h fast, bilateral TA, gastrocnemius and soleus wet weight
  increase of muscle weight in fasted mice: 7±2%
C57BL/6 mice [1]; [6]
  MuRF1 mRNA levels in TA muscles of fasted mice: reduced fasting levels
  atrogin-1 mRNA levels in TA muscles of fasted mice: reduced fasting levels
C57BL/6 mice [2]; ursolic acid 200 mg/kg i.p. twice daily 7 days
  denervated skeletal muscle fiber diameter (gastrocnemius and TA): increase in the size of denervated skeletal muscle fiber diameter
C57BL/6 mice [2]; ursolic acid 200 mg/kg i.p. twice daily 7 days after sciatic nerve transsection
  denervation-induced muscle loss (denervated/innervated lower hindlimb muscle weight): significantly decreased denervation-induced muscle loss
C57BL/6 mice [3]
  weight gain: dramatically reduced weight gain
C57BL/6 mice [3]; 5 weeks, 16 h fast
  impaired fasting glucose (pre-diabetes) or diabetes: prevented
C57BL/6 mice [3]; 7 weeks
  brown fat in scapular fat pad: increased brown fat
  energy expenditure (CLAMS): increased energy expenditure
  grip strength: increased grip strength
  hepatic changes of fatty liver disease (liver weight, hepatocellular lipid accumulation, plasma AST, ALT, alkaline phosphatase): prevented all of these hepatic changes
  muscle mass: increased
  obesity-related hypercholesterolemia (plasma cholesterol): reduced obesity-related hypercholesterolemia
  retroperitoneal and epididymal fat: reduced retroperitoneal and epididymal fat
  white fat in scapular fat pad: reduced white fat
Mice [4]
  dose of maximal inhibition of immobilization-induced muscle atrophy: 200 mg/kg
Mice [4]; 2 days before and 6 days after immobilization, ursolic acid and betulinic acid varying doses, naringenin 200 mg/kg, tomatidine 5-200 mg/kg
  immobilization-induced muscle atrophy (weights of immobile vs mobile TA): reduced muscle atrophy in a dose-dependent manner; also recorded: reduces immobilization-induced skeletal muscle atrophy
Mice [5]; HFD with ursolic acid 0.15% and/or naringenin 0.5% or 1.5%
  fasting blood glucose in high fat fed mice: partially prevented
Mice [5]; [7]
  grip strength in high fat fed mice: increased strength to a greater extent than naringenin
  skeletal muscle weight in high fat fed mice: increased muscle weight
